Among the data in US11174251B2, “Compositions and methods for inhibition of the JAK pathway” (Rigel Pharmaceuticals, Inc., priority 2010, dated 2021) are IC50 values, retold here.

Molecules are shown by their SMILES. Counter-ions that a name gives are not always drawn. Where only a bound is given, the exact number is not on record here.

In this test the target is T1, JAK3 (Homo sapiens, UniProt P52333).
T1 construct: The Ramos B-cell line was acquired from ATCC (ATCC Catalog No. CRL-1596); host or cells: Ramos B-cell line (human)
T1 sequence (P52333 1-1124): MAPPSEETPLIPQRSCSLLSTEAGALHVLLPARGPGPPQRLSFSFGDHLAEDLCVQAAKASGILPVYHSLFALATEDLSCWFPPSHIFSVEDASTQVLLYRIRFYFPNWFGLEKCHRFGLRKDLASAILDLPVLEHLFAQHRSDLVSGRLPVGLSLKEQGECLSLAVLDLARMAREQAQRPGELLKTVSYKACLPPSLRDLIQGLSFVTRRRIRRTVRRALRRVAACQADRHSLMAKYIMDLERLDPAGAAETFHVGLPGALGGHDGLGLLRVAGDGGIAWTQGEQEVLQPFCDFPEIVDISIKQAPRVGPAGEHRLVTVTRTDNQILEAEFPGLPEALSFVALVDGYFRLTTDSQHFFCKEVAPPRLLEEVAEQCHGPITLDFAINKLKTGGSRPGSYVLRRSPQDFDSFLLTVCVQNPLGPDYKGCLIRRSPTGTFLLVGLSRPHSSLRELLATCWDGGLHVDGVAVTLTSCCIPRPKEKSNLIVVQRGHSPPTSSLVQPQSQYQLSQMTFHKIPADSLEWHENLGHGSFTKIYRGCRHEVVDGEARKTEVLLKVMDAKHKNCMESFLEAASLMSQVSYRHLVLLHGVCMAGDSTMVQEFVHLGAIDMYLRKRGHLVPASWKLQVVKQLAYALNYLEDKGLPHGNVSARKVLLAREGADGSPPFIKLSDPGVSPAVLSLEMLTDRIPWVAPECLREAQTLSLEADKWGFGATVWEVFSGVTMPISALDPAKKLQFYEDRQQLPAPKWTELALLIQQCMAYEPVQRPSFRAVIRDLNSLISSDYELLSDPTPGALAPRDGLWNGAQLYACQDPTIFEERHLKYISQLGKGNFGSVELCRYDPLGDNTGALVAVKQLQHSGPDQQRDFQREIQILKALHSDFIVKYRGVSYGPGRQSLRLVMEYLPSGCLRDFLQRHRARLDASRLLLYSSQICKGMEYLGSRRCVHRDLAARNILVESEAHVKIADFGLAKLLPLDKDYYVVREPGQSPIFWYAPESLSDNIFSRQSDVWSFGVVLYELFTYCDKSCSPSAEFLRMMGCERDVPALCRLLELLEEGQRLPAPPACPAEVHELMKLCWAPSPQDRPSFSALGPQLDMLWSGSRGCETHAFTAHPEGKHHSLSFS
As to the kind of experiment: Assay for CD23 expression on Ramos B-cells stimulated by IL-4 (Table IV: ability to inhibit JAK3 activity). The class given is cell-based. The following applies: tested under conditions described in Example 3 (so in the source). The procedure, abridged:
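Human Ramos B cells in RPMI with 5% serum, pre-incubated 1 h at 37 °C with compound or DMSO, then stimulated with IL-4 (final 50 units/mL) for 20–24 h. Surface CD23 upregulation measured by FACS staining as readout of JAK1/JAK3–Stat-6 signalling.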

Compound `COc1ccc(Nc2ncc(C)c(Nc3ccc4oc(=O)[nH]c4c3)n2)cc1N` [Compound I-34, 5-[2-(3-Amino-4-methoxy-phenylamino)-5-methyl-pyrimidin-4-ylamino]-3H-benzooxazol-2-one] displayed an IC50 of under 500 nM.

`COc1cc(Nc2ncc(F)c(Nc3cc(F)c4oc(=O)[nH]c4c3)n2)cc(C)c1OC` [Compound I-184, 5-(2-(3,4-dimethoxy-5-methylphenylamino)-5-fluoropyrimidin-4-ylamino)-7-fluorobenzo[d]oxazol-2(3H)-one trifluoroacetate salt] yielded an IC50 of under 500 nM.

`COc1cc(Nc2ncc(C)c(Nc3ccc4oc(=O)[nH]c4c3)n2)cc(C)c1Cl` [Compound I-124, 5-(2-(4-chloro-3-methoxy-5-methylphenylamino)-5-methylpyrimidin-4-ylamino)benzo[d]oxazol-2(3H)-one trifluoroacetate salt] registered an IC50 of under 500 nM.

For `CCN(CC)c1cc(Nc2ncc(Cl)c(Nc3ccc4oc(=O)[nH]c4c3)n2)cc(C)c1C` [Compound I-86, 5-(5-chloro-2-(3-(diethylamino)-4,5-dimethylphenylamino)pyrimidin-4-ylamino)benzo[d]oxazol-2(3H)-one formate salt], the IC50 was under 500 nM.

Take `Cc1cnc(Nc2cc(C)c(C)c(C)c2)nc1Nc1cc(-c2ccc3c(c2)OCO3)c2oc(=O)[nH]c2c1` [Compound I-88, 5-(2-(3,4,5-trimethylphenylamino)-5-methylpyrimidin-4-ylamino)-7-(benzo[d][1,3]dioxol-6-yl)benzo[d]oxazol-2(3H)-one]: the 50% inhibitory concentration (IC50) is over 10000 nM.

In the case of `Cc1ccc(Nc2ncc(Cl)c(Nc3ccc4oc(=O)[nH]c4c3)n2)cc1C(F)(F)F` [Compound I-9, 5-(5-chloro-2-(4-methyl-3-(trifluoromethyl)phenylamino)pyrimidin-4-ylamino)benzo[d]oxazol-2(3H)-one], the IC50 is under 500 nM.

`Cc1cnc(Nc2cc(C)c(C)c(C)c2)nc1Nc1cc(CN2CCN(C(=O)OC(C)(C)C)CC2)c2oc(=O)[nH]c2c1` [Compound I-94, tert-butyl 4-((5-(2-(3,4,5-trimethylphenylamino)-5-methylpyrimidin-4-ylamino)-2,3-dihydro-2-oxobenzo[d]oxazol-7-yl)methyl)piperazine-1-carboxylate] gave an IC50 of 5000 to 10000 nM.

Take `Cc1cnc(Nc2cc(C)c(C)c(C)c2)nc1Nc1ccc2oc(=O)[nH]c2c1` [Compound I-131, 5-methyl-N4-(2-oxo-2,3-dihydro-1,3-benzoxazol-5-yl)-N2-(3,4,5-trimethyl)phenyl-2,4-pyrimidinediamine benzenesulfonic acid salt]: the half-maximal inhibitory concentration (IC50) is under 500 nM.

Compound `COCCOc1c(C)ccc(Nc2ncc(Cl)c(Nc3ccc4oc(=O)[nH]c4c3)n2)c1F` [Compound I-66, 5-(5-chloro-2-(2-fluoro-3-(2-methoxyethoxy)-4-methylphenylamino)pyrimidin-4-ylamino)benzo[d]oxazol-2(3H)-one trifluoroacetate salt] returned an IC50 of under 500 nM.

Compound `NC(=O)c1ccc(Nc2ncc(Cl)c(Nc3ccc4oc(=O)[nH]c4c3)n2)cc1` [Compound I-11, 4-(5-chloro-4-(2-oxo-2,3-dihydrobenzo[d]oxazol-5-ylamino)pyrimidin-2-ylamino)benzamide trifluoroacetate salt] showed a 50% inhibitory concentration (IC50) of under 500 nM.

Compound `COc1ccc(Nc2ncc(F)c(Nc3ccc4oc(=O)[nH]c4c3)n2)cc1C(F)(F)F` [Compound I-212, 5-fluoro-N2-(4-methoxy-3-trifluoromethyl)phenyl-N4-(2-oxo-2,3-dihydro-1,3-benzoxazol-5-yl)-2,4-pyrimidinediamine] gave an IC50 of under 500 nM.

Consider `COc1cc(Nc2ncc(CO)c(Nc3ccc4oc(=O)[nH]c4c3)n2)cc(C)c1F` [Compound I-80, 5-(2-(4-fluoro-3-methoxy-5-methylphenylamino)-5-(hydroxymethyl)pyrimidin-4-ylamino)benzo[d]oxazol-2(3H)-one trifluoroacetate salt], for which the IC50 fell in the range of 500 to 5000 nM.

In general, IC50 refers to the midpoint of a concentration-inhibition curve.
